Reference: patent US6300331A, “Naphthalimidobenzamide derivatives” (Taiho Pharmaceutical Co., Ltd., priority 1998, dated 2001)
Where a name gives a salt, the structure may show the parent alone. Read-outs that look alike come from different tables or passages of the source.

Columns and labels:
KB cells = assay: Cytotoxicity against KB cells (crystal violet dying method); assay type: cell-based; settings: Homo sapiens, read-out: Cytotoxicity [IC50 (μM)]
Procedure: Test 1 Cytotoxicity against KB cells
The residue was re-suspended in an MEM medium containing 10% fetal bovine serum. Then, an equivalent amount of a 0.2% trypan blue solution was added to a portion of the cell suspension, followed by mixing. The number of living cells which had not been dyed with the trypan blue was counted by a hemocytometer and the suspension was diluted and adjusted with the above-described culture medium to give a cell concentration of 1×10^4 cells/ml. Each well of a 96-well plate was inoculated with a 100-μl portion of the resulting suspension, in other words, was inoculated to give a concentration of 1×10^3 cells/well.
To the cells cultured in a CO2 incubator for 24 hours after the inoculation was added 100 μl/well of a medicament solution, followed by culturing for 72 hours. To a control was added 100 μl of an MEM medium.
The cytotoxicity of the medicament was determined from a change in the number of the cells by using the crystal violet dying method.
After washing the plate with water, 100 μl/well of a 0.05% crystal violet solution dissolved in 20% methanol was added to dye the cells therewith for about 15 minutes. The plate was washed to remove the unbound crystal violet, followed by the addition of 100 μl/well of 0.05M NaH2 PO4 /ethanol (1:1 v/v), whereby the crystal violet bound to the cellular protein was extracted.

[1] = system: region abundant in guanine and cytosine; assay: interaction with DNA region abundant in guanine and cytosine; assay type: binding
From the text: (§1) The naphthalimidobenzamide derivatives (1) or salts thereof according to the present invention are compounds synthesized to have a high affinity with DNA and base sequence selectivity. As a result of various investigations, it has been confirmed that the compounds of the present invention each has a high affinity with DNA based on the results of various tests including a test using ethidium bromide displacement assay or the like. It has also been confirmed that they have stronger affinities with respective base sequence regions.

[2] = system: region abundant in adenine and thymine; assay: interaction with DNA region abundant in adenine and thymine; assay type: binding
From the text: as §1

[3] = system: human skin cancer strains LOX; assay: antitumor test in nude mouse subcutaneously transplanted with human skin cancer strains LOX; assay type: in vivo
[4] = system: human pancreatic cancer strains PAN6; assay: antitumor test in nude mouse subcutaneously transplanted with human pancreatic cancer strains PAN6; assay type: in vivo
[5] = system: human breast cancer strains MX1; assay: antitumor test in nude mouse subcutaneously transplanted with human breast cancer strains MX1; assay type: in vivo
[6] = system: human gastric cancer strains AZ521; assay: antitumor test in nude mouse subcutaneously transplanted with human gastric cancer strains AZ521; assay type: in vivo
[7] = KB cells, 72 hours, 50% proliferation inhibition

| Compound | IC50 (KB cells; [7]) | further results |
| --- | --- | --- |
| O=C(NCCNCCN1C(=O)c2cccc3cc([N+](=O)[O-])cc(c23)C1=O)c1cc(C(=O)NCCNCCN2C(=O)c3cccc4cc([N+](=O)[O-])cc(c34)C2=O)cc(N2C(=O)c3cccc4cc([N+](=O)[O-])cc(c34)C2=O)c1 [Example 4, 1,3-bis[N-[2-[[2-(3-nitro-1,8-naphthalimido)ethyl]amino]ethyl]carbamoyl]-5-(3-nitro-1,8-naphthalimido)benzene dihydrochloride] | 0.048 µM | interaction with a region abundant in guanine and cytosine [1]: strong interaction |
| CN1CCN(C(=O)c2cc(C(=O)NCCNCCN3C(=O)c4cccc5cc([N+](=O)[O-])cc(c45)C3=O)cc(N3C(=O)c4cccc5cc([N+](=O)[O-])cc(c45)C3=O)c2)CC1 [Example 49, 1-(4-methylpiperazino)carbonyl-3-(3-nitro-1,8-naphthalimido)-5-[N-[2-[[2-(3-nitro-1,8-naphthalimido)ethyl]amino]ethyl]carbamoyl]benzene hydrochloride] | 0.035 µM | – |
| CN1CCN(C(=O)c2cc(C(=O)NCCCNCCN3C(=O)c4cccc5cc([N+](=O)[O-])cc(c45)C3=O)cc(N3C(=O)c4cccc5cc([N+](=O)[O-])cc(c45)C3=O)c2)CC1 [Example 56 (A), 1-(4-methylpiperazino)carbonyl-3-(3-nitro-1,8-naphthalimido)-5-[N-[3-[[2-(3-nitro-1,8-naphthalimido)ethyl]amino]propyl]carbamoyl]benzene hydrochloride] | 0.039 µM | – |
| O=C(NCCNCCn1c2ccccc2c2ccncc21)c1cc(C(=O)NCCNCCn2c3ccccc3c3ccncc32)cc(N2C(=O)c3cccc4cc([N+](=O)[O-])cc(c34)C2=O)c1 [Example 3, 1,3-bis[N-[2-[[2-(pyrido[3,4-b]indol-9-yl)ethyl]amino]ethyl]carbamoyl]-1-(3-nitro-1,8-naphthalimido)benzene tetratrifluoroacetate] | 2.6 µM | – |
| Cn1cc(NC(=O)c2cc(NC=O)cn2C)cc1C(=O)NCCNCCNC(=O)c1cc(C(=O)NCCNCCN2C(=O)c3cccc4cc([N+](=O)[O-])cc(c34)C2=O)cc(N2C(=O)c3cccc4cc([N+](=O)[O-])cc(c34)C2=O)c1 [Example 38, 1-[N-[2-[[2-[4-(4-formamido-1-methylpyrrole-2-carboxyamido)-1-methylpyrrole-2-carboxamido]ethyl]amino]ethyl]carbamoyl]-3-(3-nitro-1,8-naphthalimido)-5-[N-[2-[[2-(3-nitro-1,8-naphthalimido)ethyl]amino]ethyl]carbamoyl]benzene dihydrochloride] | 6.9 µM | – |
| CN1CCN(C(=O)c2cc(C(=O)NCCNCCN3C(=O)c4cccc5cccc(c45)C3=O)cc(N3C(=O)c4cccc5cccc(c45)C3=O)c2)CC1 [Example 51, 1-(4-methylpiperazino)carbonyl-3-(1,8-naphthalimido)-5-[N-[2-[[2-(1,8-naphthalimido)ethyl]amino]ethyl]carbamoyl]benzene hydrochloride] | 0.025 µM | – |
| CN(C)CCCNC(=O)c1cc(C(=O)NCCNCCN2C(=O)c3cccc4cc([N+](=O)[O-])cc(c34)C2=O)cc(N2C(=O)c3cccc4cc([N+](=O)[O-])cc(c34)C2=O)c1 [Example 41, 1-[N-(3-dimethylaminopropyl)carbamoyl]-3-(3-nitro-1,8-naphthalimido)-5-[N-[2-[[2-(3-nitro-1,8-naphthalimido)ethyl]amino]ethyl]carbamoyl]benzene hydrochloride] | 3.1 µM | – |
| O=C(NCCNCCN1C(=O)c2cccc3cc([N+](=O)[O-])cc(c23)C1=O)c1cc(C(=O)NCCNCCN2C(=O)c3cccc4cc([N+](=O)[O-])cc(c34)C2=O)cc(N2C(=O)c3cccc4cccc(c34)C2=O)c1 [Example 2, 1,3-bis[N-[2-[[2-(3-nitro-1,8-naphthalimido)ethyl]amino]ethyl]carbamoyl]-5(1,8-naphthalimido)benzene dimethanesulfonate] | 0.0061 µM | – |
| O=C(NCCNCCN1C(=O)c2cccc3cc([N+](=O)[O-])cc(c23)C1=O)c1cc(C(=O)N2CCC(N3CCCCC3)CC2)cc(N2C(=O)c3cccc4cc([N+](=O)[O-])cc(c34)C2=O)c1 [Example 55, 1-(3-nitro-1,8-naphthalimido)-3-[N-[2-[[2-(3-nitro-1,8-naphthalimido)ethyl]amino]ethyl]carbamoyl]-5-(4-piperidinopiperidino)carbonylbenzene hydrochloride] | 0.11 µM | – |
| Cn1cc(NC(=O)c2cc(NC=O)cn2C)cc1C(=O)NCCNCCNC(=O)c1cc(C(=O)NCCNCCNC(=O)c2cc(NC(=O)c3cc(NC=O)cn3C)cn2C)cc(N2C(=O)c3cccc4cc([N+](=O)[O-])cc(c34)C2=O)c1 [Example 30, 1,3-bis[N-[2-[[2-[4-(4-formamido-1-methylpyrrole-2-carbonylamino)-1-methylpyrrole-2-carbonylamino]ethyl]amino]ethyl]carbamoyl]-5-(3-nitro-1,8-naphthalimido)benzene dihydrochloride] | – | interaction with a region abundant in adenine and thymine [2]: strong interaction |
| O=C(NCCNCCN1C(=O)c2cc3ccccc3cc2C1=O)c1cc(C(=O)NCCNCCN2C(=O)c3cccc4cc([N+](=O)[O-])cc(c34)C2=O)cc(N2C(=O)c3cccc4cc([N+](=O)[O-])cc(c34)C2=O)c1 [Example 17, 1-[N-[2-[[2-(2,3-naphthalimido)ethyl]amino]ethyl]carbamoyl]-3-(3-nitro-1,8-naphthalimido)-5-[N-[2-[[2-(3-nitro-1,8-naphthalimido)ethyl]amino]ethyl]carbamoyl]benzene dihydrochloride] | 0.28 µM | – |
| O=C(NCCNCCNC(=O)c1cnc2ccccc2c1)c1cc(C(=O)NCCNCCN2C(=O)c3cccc4cc([N+](=O)[O-])cc(c34)C2=O)cc(N2C(=O)c3cccc4cc([N+](=O)[O-])cc(c34)C2=O)c1 [Example 13, 1-(3-nitro-1,8-naphthalimido)-3-[N-[2-[[2-(3-nitro-1,8-naphthalimido)ethyl]amino]ethyl]carbamoyl]-5-[N-[2-[[2-(quinoline-3-carbonylamino)ethyl]amino]ethyl]carbamoyl]benzene trihydrochloride] | 1.6 µM | – |
| CN1CCN(C(=O)c2cc(C(=O)NCCNCCN3C(=O)c4cccc5cc([N+](=O)[O-])cc(c45)C3=O)cc(N3C(=O)c4cccc5cccc(c45)C3=O)c2)CC1 [Example 50, 1-(4-methylpiperazino)carbonyl-3-(1,8-naphthalimido)-5-[N-[2-[[2-(3-nitro-1,8-naphthalimido)ethyl]amino]ethyl]carbamoyl]benzene hydrochloride] | 0.022 µM | – |
| O=C(NCCNCCN1C(=O)c2cccc3cc([N+](=O)[O-])cc(c23)C1=O)c1cc(C(=O)N2CCOCC2)cc(N2C(=O)c3cccc4cc([N+](=O)[O-])cc(c34)C2=O)c1 [Example 48, 1-morpholinocarbonyl-3-(3-nitro-1,8-naphthalimido)-5-[N-[2-[[2-(3-nitro-1,8-naphthalimido)ethyl]amino]ethyl]carbamoyl]benzene hydrochloride] | 0.052 µM | – |
| O=C(NCCNCCN1C(=O)c2cccc3cc([N+](=O)[O-])cc(c23)C1=O)c1cc(C(=O)NCCN2CCCCC2)cc(N2C(=O)c3cccc4cc([N+](=O)[O-])cc(c34)C2=O)c1 [Example 46, 1-(3-nitro-1,8-naphthalimido)-3-[N-[2-[[2-(3-nitro-1,8-naphthalimido)ethyl]amino]ethyl]carbamoyl]-5-[N-(2-piperidinoethyl)carbamoyl]benzene hydrochloride] | – | IC50 (KB cells; KB, 72 h): 0.053 µM; inhibitory effects against tumor proliferation [3]: 96.2%; inhibitory effects against tumor proliferation [4]: 59.8%; inhibitory effects against tumor proliferation [5]: 71.8%; inhibitory effects against tumor proliferation [6]: 79.5% |
